# ChEMBL document CHEMBL1155711, “Bidentatoside I, a new triterpene saponin from Achyranthes bidentata” (J Nat Prod, 2001)
# Calls of active or inactive are those of the source. The rule behind the calls is not given here.
# System: HT-29
# Test: Potentiation of cisplatin-induced cytotoxicity in human HT-29 cells
# Type: functional, cell-based
structure (smiles),measurement,value
CC1(C)CC[C@]2(C(=O)O[C@@H]3O[C@H](CO)[C@@H](O)[C@H](O)[C@H]3O)CC[C@]3(C)C(=CC[C@@H]4[C@@]5(C)CC[C@H](O[C@@H]6O[C@H](C(=O)O)[C@@H](O)[C@@H]7OC(O)(C(=O)O)C(OCC(=O)O)O[C@@H]67)C(C)(C)[C@@H]5CC[C@]43C)[C@@H]2C1 (stereo partly specified),Activity,inactive
